From the supplement of paper PMC4862054

Each molecule was assayed on CAL-85-1 (assay: normalised response (% of control), CellTiter-Glo; higher = more viable cells (100 = DMSO, 0 = benzethonium chloride kill control)). Details: incubation time: 72 h.
Procedure, shortened: (§1)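 A 20 µl suspension of breast cancer cells was seeded into each well of 384-well plates containing compound at 5 concentrations in 10-fold steps over a compound-specific 10,000-fold range. After 72 h incubation, CellTox Green fluorescence (485/520 nm) was read first, and CellTiter-Glo luminescence was read after 10 min at room temperature. Each plate was normalised against 0.1 % DMSO (100) and a positive kill control (0), and each value is the normalised signal at one concentration.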
Work on Cc1ccc(C(=O)N(CCCN)[C@@H](c2oc3cc(Cl)ccc3c(=O)c2Cc2ccccc2)C(C)C)cc1 (10 nM) yielded a normalised response of 101%. CC(=O)Nc1ccc(C(=O)Nc2ccccc2N)cc1 [Tacedinaline] (100 nM) gave a normalised response of 101%. NC(=O)Nc1cc(-c2cccc(F)c2)sc1C(=O)N[C@H]1CCCNC1 [AZD7762] (100 nM) gave a normalised response of 59.5%. Work on O=C(O)c1ccc(-c2c[nH]c3ncc(-c4ccccc4)cc23)cc1C1CCCC1 (1000 nM) yielded a normalised response of 99.2%. In the case of CCCCCCCCCCCCCCCCCCOP(=O)([O-])OC1CC[N+](C)(C)CC1 [Perifosine] (250 nM), the normalised response is reported as 95.4%. In the case of CCC(C)(C)C(=O)O[C@H]1C[C@@H](C)C=C2C=C[C@H](C)[C@H](CC[C@@H]3C[C@@H](O)CC(=O)O3)[C@H]21 [Simvastatin] (1000 nM), the normalised response is reported as 96.6%. Molecule N.N.[Cl][Pt][Cl] [Cisplatin] (100 nM) has a normalised response of 96.2%. In the case of N#CCNC(=O)c1ccc(-c2ccnc(Nc3ccc(N4CCOCC4)cc3)n2)cc1 [Momelotinib] (1000 nM), the normalised response is reported as 92.7%. C[C@@H](Oc1cc(-c2cnn(C3CCNCC3)c2)cnc1N)c1c(Cl)ccc(F)c1Cl [Crizotinib] (100 nM) gave a normalised response of 116%.

What follows are molecules tested on CAL-120 in the same assay as above. Details: incubation time: 72 h.
Procedure, shortened: as §1
Cc1ccc(C(=O)N(CCCN)[C@@H](c2oc3cc(Cl)ccc3c(=O)c2Cc2ccccc2)C(C)C)cc1 (10 nM) was tested, and the normalised response was 102%. CC(=O)Nc1ccc(C(=O)Nc2ccccc2N)cc1 [Tacedinaline] (100 nM) gave a normalised response of 99.2%. NC(=O)Nc1cc(-c2cccc(F)c2)sc1C(=O)N[C@H]1CCCNC1 [AZD7762] (100 nM) was tested, and the normalised response was 95.9%. Work on O=C(O)c1ccc(-c2c[nH]c3ncc(-c4ccccc4)cc23)cc1C1CCCC1 (1000 nM) yielded a normalised response of 102%. With CCCCCCCCCCCCCCCCCCOP(=O)([O-])OC1CC[N+](C)(C)CC1 [Perifosine] (250 nM) the normalised response was 104%. With CCC(C)(C)C(=O)O[C@H]1C[C@@H](C)C=C2C=C[C@H](C)[C@H](CC[C@@H]3C[C@@H](O)CC(=O)O3)[C@H]21 [Simvastatin] (1000 nM) the normalised response was 96.7%. N.N.[Cl][Pt][Cl] [Cisplatin] (100 nM) showed a normalised response of 101%. For N#CCNC(=O)c1ccc(-c2ccnc(Nc3ccc(N4CCOCC4)cc3)n2)cc1 [Momelotinib] (1000 nM), the normalised response was 75.8%. In the case of C[C@@H](Oc1cc(-c2cnn(C3CCNCC3)c2)cnc1N)c1c(Cl)ccc(F)c1Cl [Crizotinib] (100 nM), the normalised response is reported as 100%.

These molecules were tested on HCC1599 in the same assay as above. Details: incubation time: 72 h.
Procedure, shortened: as §1
Work on Cc1ccc(C(=O)N(CCCN)[C@@H](c2oc3cc(Cl)ccc3c(=O)c2Cc2ccccc2)C(C)C)cc1 (10 nM) yielded a normalised response of 100%. Work on CC(=O)Nc1ccc(C(=O)Nc2ccccc2N)cc1 [Tacedinaline] (100 nM) yielded a normalised response of 126%. Work on NC(=O)Nc1cc(-c2cccc(F)c2)sc1C(=O)N[C@H]1CCCNC1 [AZD7762] (100 nM) yielded a normalised response of 78.5%. O=C(O)c1ccc(-c2c[nH]c3ncc(-c4ccccc4)cc23)cc1C1CCCC1 (1000 nM) gave a normalised response of 102%. With CCCCCCCCCCCCCCCCCCOP(=O)([O-])OC1CC[N+](C)(C)CC1 [Perifosine] (250 nM) the normalised response was 101%. CCC(C)(C)C(=O)O[C@H]1C[C@@H](C)C=C2C=C[C@H](C)[C@H](CC[C@@H]3C[C@@H](O)CC(=O)O3)[C@H]21 [Simvastatin] (1000 nM) gave a normalised response of 102%. In the case of N.N.[Cl][Pt][Cl] [Cisplatin] (100 nM), the normalised response is reported as 98.7%. N#CCNC(=O)c1ccc(-c2ccnc(Nc3ccc(N4CCOCC4)cc3)n2)cc1 [Momelotinib] (1000 nM) showed a normalised response of 110%. C[C@@H](Oc1cc(-c2cnn(C3CCNCC3)c2)cnc1N)c1c(Cl)ccc(F)c1Cl [Crizotinib] (100 nM) showed a normalised response of 114%.

Each molecule was assayed on MDA-MB-436 in the same assay as above. Details: incubation time: 72 h.
Procedure, shortened: as §1
Work on Cc1ccc(C(=O)N(CCCN)[C@@H](c2oc3cc(Cl)ccc3c(=O)c2Cc2ccccc2)C(C)C)cc1 (10 nM) yielded a normalised response of 107%. Molecule CC(=O)Nc1ccc(C(=O)Nc2ccccc2N)cc1 [Tacedinaline] (100 nM) has a normalised response of 102%. NC(=O)Nc1cc(-c2cccc(F)c2)sc1C(=O)N[C@H]1CCCNC1 [AZD7762] (100 nM) gave a normalised response of 92.4%. Work on O=C(O)c1ccc(-c2c[nH]c3ncc(-c4ccccc4)cc23)cc1C1CCCC1 (1000 nM) yielded a normalised response of 103%. For CCCCCCCCCCCCCCCCCCOP(=O)([O-])OC1CC[N+](C)(C)CC1 [Perifosine] (250 nM), the normalised response was 99.3%. Molecule CCC(C)(C)C(=O)O[C@H]1C[C@@H](C)C=C2C=C[C@H](C)[C@H](CC[C@@H]3C[C@@H](O)CC(=O)O3)[C@H]21 [Simvastatin] (1000 nM) has a normalised response of 98.9%. Molecule N.N.[Cl][Pt][Cl] [Cisplatin] (100 nM) has a normalised response of 101%. Molecule N#CCNC(=O)c1ccc(-c2ccnc(Nc3ccc(N4CCOCC4)cc3)n2)cc1 [Momelotinib] (1000 nM) has a normalised response of 96.9%. C[C@@H](Oc1cc(-c2cnn(C3CCNCC3)c2)cnc1N)c1c(Cl)ccc(F)c1Cl [Crizotinib] (100 nM) was tested, and the normalised response was 102%.

Each molecule was assayed on MDA-MB-468 in the same assay as above. Details: incubation time: 72 h.
Procedure, shortened: as §1
With Cc1ccc(C(=O)N(CCCN)[C@@H](c2oc3cc(Cl)ccc3c(=O)c2Cc2ccccc2)C(C)C)cc1 (10 nM) the normalised response was 90.7%. Work on CC(=O)Nc1ccc(C(=O)Nc2ccccc2N)cc1 [Tacedinaline] (100 nM) yielded a normalised response of 109%. NC(=O)Nc1cc(-c2cccc(F)c2)sc1C(=O)N[C@H]1CCCNC1 [AZD7762] (100 nM) was tested, and the normalised response was 99.3%. In the case of O=C(O)c1ccc(-c2c[nH]c3ncc(-c4ccccc4)cc23)cc1C1CCCC1 (1000 nM), the normalised response is reported as 93.6%.
